Results as given in patent publication US9067974B2, “Polymyxin derivatives and uses thereof” (priority 2006, dated 2015).

Legend:
[1] = tested on: E. coli IH3080 (K1:O18); test: Well diffusion growth inhibition on LB agar plates (direct antibacterial activity); assay type: cell-based, Escherichia coli
Description: Peptides synthesized in Example 1, all carrying at least two (2) but not more than three (3) positive charges, were studied for their ability to inhibit the growth of E. coli. This was tested employing LB agar (LB Agar Lennox, Difco, BD, Sparks, Md., U.S.A) plates. The indicator organism E. coli IH3080 (K1:O18) was an encapsulated strain originally isolated from a neonate suffering from meningitis (Vaara et al. 1984) and obtained from National Public Health Institute, Helsinki, Finland.
(§1) From an overnight-grown culture of IH3080 on LB agar, a suspension of approx. 10^8 cells/ml was prepared in 0.9% NaCl. Aliquots of this suspension were then pipetted on the agar plates and the plates were gently shaken to spread the suspension evenly on the entire surface of the plate. Thereafter, the unabsorbed part of the suspension was removed by using a Pasteur pipette. After the surface had dried, small wells (diameter, 2 mm) were drilled on the plates (five wells per plate) by using a sterile sharp-edged narrow metal tube, single-use pipette tip, and vacuum suction. […] Controls included 0.9% NaCl solution without the compound to be tested. The plates were then incubated for 18 h at 37° C. whereafter the diameters of growth inhibition zones around each well were measured; the diameter of the well itself was not reduced. Finally, the diameters were converted to surface areas of growth inhibition (in square mm).

[2] = tested on: E. coli IH3080; test: Sensitization to rifampin: well diffusion growth inhibition on LB plates containing rifampin; assay type: cell-based, Escherichia coli; details: 4 μg of compound
Description: as §1

[3] = tested on: Acinetobacter baumannii ATCC 19606; test: Well diffusion growth inhibition on LB agar plates (direct antibacterial activity); assay type: cell-based; details: A. baumannii ATCC 19606
Description: (§2) From an overnight-grown culture of IH3080 on LB agar, a suspension of approx. 10^8 cells/ml was prepared in 0.9% NaCl. Aliquots of this suspension were then pipetted on the agar plates and the plates were gently shaken to spread the suspension evenly on the entire surface of the plate. Thereafter, the unabsorbed part of the suspension was removed by using a Pasteur pipette. After the surface had dried, small wells (diameter, 2 mm) were drilled on the plates (five wells per plate) by using a sterile sharp-edged narrow metal tube, single-use pipette tip, and vacuum suction. Samples (4 μl and 10 μl) of the peptide solution in 0.9% NaCl (at concentrations of 1 μg/ml and 0.1 μg/ml) were then pipetted to the wells and the sample fluids were allowed to absorb. Controls included 0.9% NaCl solution without the compound to be tested. The plates were then incubated for 18 h at 37° C. whereafter the diameters of growth inhibition zones around each well were measured; the diameter of the well itself was not reduced. Finally, the diameters were converted to surface areas of growth inhibition (in square mm).
(§3) Direct antibacterial activity of twelve NAB compounds against Acinetobacter baumannii ATCC 19606 and Pseudomonas aeruginosa ATCC 27853 was tested by using the susceptibility determination method described in Example 2. Five compounds (NAB7062, NAB734, NAB737, NAB739, and NAB740) had notable activity against A. baumannii. […] The antibacterial activity of NAB739 and NAB740 were as strong as or even stronger than that of polymyxin B.

[4] = tested on: Pseudomonas aeruginosa ATCC 27853; test: as above; assay type: cell-based; details: Ps. aeruginosa ATCC 27853
Description: as §2, §3

[5] = tested on: Ps. aeruginosa ATCC 27853; test: Sensitization to rifampin: well diffusion growth inhibition on LB plates containing rifampin; assay type: cell-based, Pseudomonas aeruginosa; details: 4 μg of compound
[6] = tested on: A. baumannii ATCC 19606; test: as above; assay type: cell-based, Acinetobacter baumannii; details: 4 μg of compound

DA-cy[Dab-Dab-DPhe-Leu-Dab-Dab-Thr-] [NAB 736]
Antibacterial activity (growth inhibition area around a well) ([1]; 4 μg of compound per well): 0 square millimeters | Antibacterial activity (growth inhibition area around a well) ([1]; 10 μg of compound per well): 0 square millimeters | Antibacterial activity in the presence of rifampin (growth inhibition area around a well) ([2]; rifampin 0 μg/ml): 0 square millimeters | Antibacterial activity in the presence of rifampin (growth inhibition area around a well) ([2]; rifampin 0.1 μg/ml): 113 square millimeters | Antibacterial activity in the presence of rifampin (growth inhibition area around a well) ([2]; rifampin 1.0 μg/ml): 133 square millimeters | Antibacterial activity (growth inhibition area around a well) ([3]; 4 μg per well): 0 square millimeters | Antibacterial activity (growth inhibition area around a well) ([3]; 10 μg per well): 0 square millimeters | Antibacterial activity (growth inhibition area around a well) ([4]; 4 μg per well): 38 square millimeters | Antibacterial activity (growth inhibition area around a well) ([4]; 10 μg per well): 79 square millimeters | Antibacterial activity in the presence of rifampin (growth inhibition area around a well) ([5]; rifampin 0 μg/ml): 38 square millimeters | Antibacterial activity in the presence of rifampin (growth inhibition area around a well) ([5]; rifampin 0.1 μg/ml): 38 square millimeters | Antibacterial activity in the presence of rifampin (growth inhibition area around a well) ([5]; rifampin 0.3 μg/ml): 38 square millimeters | Antibacterial activity in the presence of rifampin (growth inhibition area around a well) ([6]; rifampin 0 μg/ml): 0 square millimeters | Antibacterial activity in the presence of rifampin (growth inhibition area around a well) ([6]; rifampin 0.1 μg/ml): 95 square millimeters | Antibacterial activity in the presence of rifampin (growth inhibition area around a well) ([6]; rifampin 0.3 μg/ml): 154 square millimeters

OA-Thr-DSer-cy[Dab-Dab-DPhe-Leu-Dab-Dab-Thr-] [NAB 739]
Antibacterial activity (growth inhibition area around a well) ([1]; 4 μg of compound per well): 133 square millimeters | Antibacterial activity (growth inhibition area around a well) ([1]; 10 μg of compound per well): 177 square millimeters | Antibacterial activity in the presence of rifampin (growth inhibition area around a well) ([2]; rifampin 0 μg/ml): 133 square millimeters | Antibacterial activity in the presence of rifampin (growth inhibition area around a well) ([2]; rifampin 0.1 μg/ml): 177 square millimeters | Antibacterial activity in the presence of rifampin (growth inhibition area around a well) ([2]; rifampin 1.0 μg/ml): 201 square millimeters | Antibacterial activity (growth inhibition area around a well) ([3]; 4 μg per well): 113 square millimeters | Antibacterial activity (growth inhibition area around a well) ([3]; 10 μg per well): 177 square millimeters | Antibacterial activity (growth inhibition area around a well) ([4]; 4 μg per well): 38 square millimeters | Antibacterial activity (growth inhibition area around a well) ([4]; 10 μg per well): 79 square millimeters | Antibacterial activity in the presence of rifampin (growth inhibition area around a well) ([5]; rifampin 0 μg/ml): 38 square millimeters | Antibacterial activity in the presence of rifampin (growth inhibition area around a well) ([5]; rifampin 0.1 μg/ml): 64 square millimeters | Antibacterial activity in the presence of rifampin (growth inhibition area around a well) ([5]; rifampin 0.3 μg/ml): 64 square millimeters | Antibacterial activity in the presence of rifampin (growth inhibition area around a well) ([6]; rifampin 0 μg/ml): 113 square millimeters | Antibacterial activity in the presence of rifampin (growth inhibition area around a well) ([6]; rifampin 0.1 μg/ml): 177 square millimeters | Antibacterial activity in the presence of rifampin (growth inhibition area around a well) ([6]; rifampin 0.3 μg/ml): 314 square millimeters

OA-Thr-Dab-cy[Dab-Dab-DPhe-Leu-Dab-Abu-Thr-] [NAB 717]
Antibacterial activity (growth inhibition area around a well) ([1]; 4 μg of compound per well): 0 square millimeters | Antibacterial activity (growth inhibition area around a well) ([1]; 10 μg of compound per well): 0 square millimeters | Antibacterial activity in the presence of rifampin (growth inhibition area around a well) ([2]; rifampin 0 μg/ml): 0 square millimeters | Antibacterial activity in the presence of rifampin (growth inhibition area around a well) ([2]; rifampin 0.1 μg/ml): 71 square millimeters | Antibacterial activity in the presence of rifampin (growth inhibition area around a well) ([2]; rifampin 1.0 μg/ml): 95 square millimeters | Antibacterial activity (growth inhibition area around a well) ([3]; 4 μg per well): 0 square millimeters | Antibacterial activity (growth inhibition area around a well) ([3]; 10 μg per well): 0 square millimeters | Antibacterial activity (growth inhibition area around a well) ([4]; 4 μg per well): 0 square millimeters | Antibacterial activity (growth inhibition area around a well) ([4]; 10 μg per well): 0 square millimeters | Antibacterial activity in the presence of rifampin (growth inhibition area around a well) ([5]; rifampin 0 μg/ml): 0 square millimeters | Antibacterial activity in the presence of rifampin (growth inhibition area around a well) ([5]; rifampin 0.1 μg/ml): 0 square millimeters | Antibacterial activity in the presence of rifampin (growth inhibition area around a well) ([5]; rifampin 0.3 μg/ml): 0 square millimeters | Antibacterial activity in the presence of rifampin (growth inhibition area around a well) ([6]; rifampin 0 μg/ml): 0 square millimeters | Antibacterial activity in the presence of rifampin (growth inhibition area around a well) ([6]; rifampin 0.1 μg/ml): 0 square millimeters | Antibacterial activity in the presence of rifampin (growth inhibition area around a well) ([6]; rifampin 0.3 μg/ml): 50 square millimeters

OA-Thr-Dab-cy[Dab-Dab-DPhe-Leu-Abu-Dab-Thr-] [NAB 716]
Antibacterial activity (growth inhibition area around a well) ([1]; 4 μg of compound per well): 13 square millimeters | Antibacterial activity (growth inhibition area around a well) ([1]; 10 μg of compound per well): 64 square millimeters | Antibacterial activity in the presence of rifampin (growth inhibition area around a well) ([2]; rifampin 0 μg/ml): 13 square millimeters | Antibacterial activity in the presence of rifampin (growth inhibition area around a well) ([2]; rifampin 0.1 μg/ml): 133 square millimeters | Antibacterial activity in the presence of rifampin (growth inhibition area around a well) ([2]; rifampin 1.0 μg/ml): 165 square millimeters | Antibacterial activity (growth inhibition area around a well) ([3]; 4 μg per well): 0 square millimeters | Antibacterial activity (growth inhibition area around a well) ([3]; 10 μg per well): 0 square millimeters | Antibacterial activity (growth inhibition area around a well) ([4]; 4 μg per well): 0 square millimeters | Antibacterial activity (growth inhibition area around a well) ([4]; 10 μg per well): 0 square millimeters | Antibacterial activity in the presence of rifampin (growth inhibition area around a well) ([5]; rifampin 0 μg/ml): 0 square millimeters | Antibacterial activity in the presence of rifampin (growth inhibition area around a well) ([5]; rifampin 0.1 μg/ml): 0 square millimeters | Antibacterial activity in the presence of rifampin (growth inhibition area around a well) ([5]; rifampin 0.3 μg/ml): 0 square millimeters | Antibacterial activity in the presence of rifampin (growth inhibition area around a well) ([6]; rifampin 0 μg/ml): 0 square millimeters | Antibacterial activity in the presence of rifampin (growth inhibition area around a well) ([6]; rifampin 0.1 μg/ml): 0 square millimeters | Antibacterial activity in the presence of rifampin (growth inhibition area around a well) ([6]; rifampin 0.3 μg/ml): 64 square millimeters

OA-Thr-Abu-cy[Dab-Dab-DLeu-Leu-Dab-Dab-Thr-] [NAB 718]
Antibacterial activity (growth inhibition area around a well) ([1]; 4 μg of compound per well): 0 square millimeters | Antibacterial activity (growth inhibition area around a well) ([1]; 10 μg of compound per well): 0 square millimeters | Antibacterial activity in the presence of rifampin (growth inhibition area around a well) ([2]; rifampin 0 μg/ml): 0 square millimeters | Antibacterial activity in the presence of rifampin (growth inhibition area around a well) ([2]; rifampin 0.1 μg/ml): 13 square millimeters | Antibacterial activity in the presence of rifampin (growth inhibition area around a well) ([2]; rifampin 1.0 μg/ml): 133 square millimeters | Antibacterial activity (growth inhibition area around a well) ([3]; 4 μg per well): 0 square millimeters | Antibacterial activity (growth inhibition area around a well) ([3]; 10 μg per well): 0 square millimeters | Antibacterial activity (growth inhibition area around a well) ([4]; 4 μg per well): 0 square millimeters | Antibacterial activity (growth inhibition area around a well) ([4]; 10 μg per well): 0 square millimeters | Antibacterial activity in the presence of rifampin (growth inhibition area around a well) ([5]; rifampin 0 μg/ml): 0 square millimeters | Antibacterial activity in the presence of rifampin (growth inhibition area around a well) ([5]; rifampin 0.1 μg/ml): 0 square millimeters | Antibacterial activity in the presence of rifampin (growth inhibition area around a well) ([5]; rifampin 0.3 μg/ml): 0 square millimeters | Antibacterial activity in the presence of rifampin (growth inhibition area around a well) ([6]; rifampin 0 μg/ml): 0 square millimeters | Antibacterial activity in the presence of rifampin (growth inhibition area around a well) ([6]; rifampin 0.1 μg/ml): 0 square millimeters | Antibacterial activity in the presence of rifampin (growth inhibition area around a well) ([6]; rifampin 0.3 μg/ml): 38 square millimeters
